Source: publication PMC4389225, “Triaminopyrimidine is a fast-killing and long-acting antimalarial clinical candidate” (Nature Communications, 2015)
In brackets after ≈: the same amount, converted by molar mass.

Tests used:
[1] = Solubility
[2] = system: asexual blood stage of Pf; experiment: Pf asexual blood stage potency (Pf IC50); format: cell-based, Plasmodium falciparum; conditions: Plasmodium falciparum
Excerpt: The TAPs series emerged from a high-throughput screen (HTS) of 500,000 compounds from the AstraZeneca corporate library against the asexual blood stage of Pf using a high-content image-based approach. The procedure for synthesis of compounds 1-6, 10, 11 using a scheme similar to Fig. 1 is provided in Supplementary Note 1. The initial hit provided multiple diversification points for a robust lead optimization campaign. […] Compounds with 2-pyridyl modification at the 2-amino position of pyrimidine core improved potency and solubility at the cost of potent activity against hERG and acetylcholine esterase (AChE; compounds 3-6; Table 1). […] The observed hERG and AChE selectivity improvement with 7 could be attributed to the polar nature of the pyrazole group and its role in reducing the pKa of the core pyrimidine ring. […] To assess the potential for cross-resistance, representative TAPs were screened against a panel of clinical isolates and in vitro-generated mutant strains displaying varying mechanisms of resistance to antimalarial agents currently in use and under development, respectively, (Supplementary Tables 1–3).

[3] = biological target: T1, hERG (Homo sapiens, UniProt Q12809); experiment: electrophysiology-based hERG assay using IonWorks HT (CHO cells); format: cell-based; conditions: hERG IC50
T1 construct: expressed in transfected cells; host or cells: CHO cells
Protocol: hERG IC50 was determined in an electrophysiology-based hERG assay using IonWorks HT (CHO cells) as described earlier.

T1 sequence (Q12809 whole entry): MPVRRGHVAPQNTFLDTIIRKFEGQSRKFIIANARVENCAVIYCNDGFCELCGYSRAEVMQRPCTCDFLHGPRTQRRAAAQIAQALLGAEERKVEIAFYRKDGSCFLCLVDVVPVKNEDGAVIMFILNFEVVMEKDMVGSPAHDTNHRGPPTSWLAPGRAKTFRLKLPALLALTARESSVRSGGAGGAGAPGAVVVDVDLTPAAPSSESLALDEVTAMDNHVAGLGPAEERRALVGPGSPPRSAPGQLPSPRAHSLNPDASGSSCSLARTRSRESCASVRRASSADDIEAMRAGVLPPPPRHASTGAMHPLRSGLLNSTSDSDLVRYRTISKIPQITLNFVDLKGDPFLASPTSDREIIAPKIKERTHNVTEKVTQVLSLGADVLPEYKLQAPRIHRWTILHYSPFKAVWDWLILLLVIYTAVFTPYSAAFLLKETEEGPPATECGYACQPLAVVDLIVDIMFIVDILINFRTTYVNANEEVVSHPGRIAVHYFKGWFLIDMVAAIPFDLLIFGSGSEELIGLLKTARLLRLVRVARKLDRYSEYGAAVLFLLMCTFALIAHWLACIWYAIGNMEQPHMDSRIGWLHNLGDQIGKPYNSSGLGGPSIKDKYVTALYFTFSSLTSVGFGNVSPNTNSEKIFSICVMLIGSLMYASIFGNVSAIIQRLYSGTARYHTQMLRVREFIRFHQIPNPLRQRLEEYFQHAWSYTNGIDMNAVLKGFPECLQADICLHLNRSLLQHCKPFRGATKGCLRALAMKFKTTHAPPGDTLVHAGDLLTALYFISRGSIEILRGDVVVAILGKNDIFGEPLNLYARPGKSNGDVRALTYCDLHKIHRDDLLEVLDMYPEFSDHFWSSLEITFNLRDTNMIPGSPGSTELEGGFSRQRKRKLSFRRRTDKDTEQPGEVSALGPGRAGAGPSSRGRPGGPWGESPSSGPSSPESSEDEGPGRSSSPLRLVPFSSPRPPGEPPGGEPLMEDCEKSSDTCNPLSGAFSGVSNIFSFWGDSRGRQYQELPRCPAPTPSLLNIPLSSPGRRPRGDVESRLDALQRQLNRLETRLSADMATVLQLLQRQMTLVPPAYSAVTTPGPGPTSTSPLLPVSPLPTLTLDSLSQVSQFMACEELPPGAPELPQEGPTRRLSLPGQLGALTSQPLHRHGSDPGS

Compound CCc1ccc(Nc2ncc(N3CCN(C)CC3)c(N3CCCC3)n2)cc1 [compound 1] has a solubility [1] of 10 µM (≈ 3.67 µg/mL), an IC50 [2] of 0.15 µM and an IC50 [3] of 3.7 µM.
